From patent US9056111B1, “Selective efflux inhibitors and related pharmaceutical compositions and methods of treatment” (STC.UNM, priority 2011, dated 2015) come the findings set out here.

Entries after “also recorded” stand apart in the source; their conditions may differ.

The subject of data set [1] is ABCB1 over-expressing Jurkat-DNR cells. In words: Chemoreversal assay: potentiation of daunorubicin (DNR) killing. The format is cell-based. To be noted: constant 100 nM DNR, varied inhibitor dose, read-out: CR50 ABCB1.
Data set [2] concerns the target T1, ABCG2 (Homo sapiens, UniProt Q9UNQ0).
T1 sequence (Q9UNQ0 1-655): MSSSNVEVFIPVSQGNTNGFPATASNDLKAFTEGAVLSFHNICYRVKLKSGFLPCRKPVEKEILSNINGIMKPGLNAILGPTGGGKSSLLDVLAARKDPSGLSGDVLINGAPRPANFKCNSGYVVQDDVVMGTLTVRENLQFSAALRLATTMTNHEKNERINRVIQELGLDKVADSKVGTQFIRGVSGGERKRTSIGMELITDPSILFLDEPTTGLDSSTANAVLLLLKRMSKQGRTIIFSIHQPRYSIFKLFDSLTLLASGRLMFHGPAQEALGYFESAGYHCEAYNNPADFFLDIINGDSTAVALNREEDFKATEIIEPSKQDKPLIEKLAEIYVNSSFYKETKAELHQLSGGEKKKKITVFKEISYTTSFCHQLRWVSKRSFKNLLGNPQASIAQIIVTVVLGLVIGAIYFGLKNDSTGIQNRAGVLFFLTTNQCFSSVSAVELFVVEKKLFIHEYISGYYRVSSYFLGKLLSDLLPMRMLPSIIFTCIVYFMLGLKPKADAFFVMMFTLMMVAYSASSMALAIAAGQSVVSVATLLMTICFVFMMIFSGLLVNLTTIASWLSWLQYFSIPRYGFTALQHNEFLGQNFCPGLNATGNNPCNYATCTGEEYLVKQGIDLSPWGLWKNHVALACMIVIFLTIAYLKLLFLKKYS
Description: JC-1 efflux inhibition dose response, flow cytometry, Ig-MXP3 cells. The method, boiled down: (§1)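 Ig-MXP3 (ABCG2) and Jurkat-DNR (ABCB1) cells, run separately, are pre-stained with 1 μM JC-1 and added to compound in PBS; retained dye is read by high-throughput flow cytometry with time-gated analysis.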
On the technique in general: Flow cytometry measures light scatter and fluorescence of single cells or particles in a stream.

For data set [3], the target named is T2, ABCB1 / ABCG2 (Homo sapiens, UniProt Q9UNQ0).
T2 sequence (Q9UNQ0 1-655): T1 sequence (Q9UNQ0 1-655)
The data set is described as above. To be noted: human, probe JC-1 (1 µM), ~Fold G2 Selective (B1/G2), quotient of average ABCB1 IC50 and average ABCG2 IC50, efflux assay. The method, boiled down:
as §1

Data set [4] concerns Ig-MXP3 cells. Description: Direct cytotoxicity (Toxic Dose 50) without chemotherapeutic. The format is cell-based. To be noted: Ig-MXP3 cells, inhibitor without chemotherapeutic.
In data set [5] the test system is ABCG2 over-expressing Ig-MXP3 cells. In words: Chemoreversal assay: potentiation of mitoxantrone (MTX) killing. Type of data set: cell-based. Conditions: Ig-MXP3 cells, constant 30 nM MTX, varied inhibitor dose; read-out: CR50 ABCG2.
The target in data set [6] is ABCB1 (Homo sapiens, UniProt P08183). Description: JC-1 efflux inhibition dose response, flow cytometry, Jurkat-DNR cells. To be noted: for IC50: IC50 ABCB1 (efflux inhibition of JC-1 substrate), Jurkat-DNR cells over-expressing ABCB1, averages of two to four replicates. The essentials: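 Jurkat-DNR cells pre-stained with 1 μM JC-1 were incubated with compound (final 50 μM to 69 nM, […]) at 1×10^6 cells/mL, rotated 30 min at 25° C. Retained JC-1 read by flow cytometry (488 nm excitation, 530/40 nm emission). Curves fitted to a four-parameter logistic.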
Sequence of ABCB1 (P08183 whole entry): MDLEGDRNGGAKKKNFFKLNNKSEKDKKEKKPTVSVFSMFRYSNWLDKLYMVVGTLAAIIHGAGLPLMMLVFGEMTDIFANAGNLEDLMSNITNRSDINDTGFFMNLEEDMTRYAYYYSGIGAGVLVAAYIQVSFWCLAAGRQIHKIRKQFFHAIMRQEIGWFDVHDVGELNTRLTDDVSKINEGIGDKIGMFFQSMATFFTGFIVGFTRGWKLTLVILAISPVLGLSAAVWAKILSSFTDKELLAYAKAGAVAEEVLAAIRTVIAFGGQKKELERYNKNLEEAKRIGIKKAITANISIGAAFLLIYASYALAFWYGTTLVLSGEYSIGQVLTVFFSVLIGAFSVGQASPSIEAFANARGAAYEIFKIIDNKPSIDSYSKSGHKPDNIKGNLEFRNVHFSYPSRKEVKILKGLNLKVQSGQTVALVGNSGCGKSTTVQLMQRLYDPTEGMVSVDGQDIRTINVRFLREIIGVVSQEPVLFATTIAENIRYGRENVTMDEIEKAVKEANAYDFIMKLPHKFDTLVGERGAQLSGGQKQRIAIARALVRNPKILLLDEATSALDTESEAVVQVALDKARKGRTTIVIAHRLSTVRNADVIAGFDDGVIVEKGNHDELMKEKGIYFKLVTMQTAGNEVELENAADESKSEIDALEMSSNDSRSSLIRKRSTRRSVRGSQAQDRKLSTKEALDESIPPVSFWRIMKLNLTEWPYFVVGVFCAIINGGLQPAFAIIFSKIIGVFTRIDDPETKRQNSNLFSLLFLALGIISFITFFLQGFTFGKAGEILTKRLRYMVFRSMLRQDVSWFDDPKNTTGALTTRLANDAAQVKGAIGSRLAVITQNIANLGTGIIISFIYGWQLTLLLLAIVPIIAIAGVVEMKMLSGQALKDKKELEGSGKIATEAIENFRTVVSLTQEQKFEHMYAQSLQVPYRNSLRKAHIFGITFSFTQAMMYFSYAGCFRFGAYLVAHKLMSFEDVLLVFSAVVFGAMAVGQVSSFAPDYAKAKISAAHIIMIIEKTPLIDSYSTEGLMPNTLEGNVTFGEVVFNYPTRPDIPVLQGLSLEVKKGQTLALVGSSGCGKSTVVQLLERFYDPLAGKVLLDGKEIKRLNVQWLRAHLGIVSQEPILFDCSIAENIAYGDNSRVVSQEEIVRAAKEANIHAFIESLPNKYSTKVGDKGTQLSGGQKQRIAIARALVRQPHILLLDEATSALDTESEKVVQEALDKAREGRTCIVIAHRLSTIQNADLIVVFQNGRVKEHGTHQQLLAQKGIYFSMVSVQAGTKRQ

For data set [7], the system named is Jurkat-DNR cells. Description: Direct cytotoxicity (Toxic Dose 50) without chemotherapeutic. To be noted: Jurkat-DNR cells, inhibitor without chemotherapeutic. The procedure:
Cells (ABCB1, Jurkat-DNR or ABCG2 Ig-MXP3) are incubated with the test compound (3 order of magnitude concentration range) over a 3-day and 7-day period in the presence of the inhibitor and chemotherapeutic (ABCB1, DNR or ABCG2 MTX), such that a cell concentration of at least 1×10^5 cells/mL is maintained. Cell viability is determined by trypan blue staining and enumeration under light microscopy. […] A chemoreversal index (Chemoreversal 50, CR50) is determined from the viability assessment. Using a similar approach, a direct cytotoxicity index (Toxic Dose 50, TD50) is determined by assessment of cell death of cells grown in media alone.
Cells (ABCB1, Jurkat-DNR or ABCG2 Ig-MXP3) were incubated with the test compound in a 3 order of magnitude concentration range over three and seven day periods in the presence of the inhibitor and chemotherapeutic (ABCB1, 100 nM DNR or ABCG2 30 nM MTX), such that a cell concentration of at least 1×10^5 cells mL^−1 was maintained. Cell viability was determined by trypan blue staining and enumeration under light microscopy. […] A chemoreversal index (Chemoreversal 50, CR50) was determined from the viability assessment. Using a similar approach, a direct cytotoxicity index (Toxic Dose 50, TD50) was determined by assessment of cell death of cells grown in media alone.

The subject of data set [8] is ABCG2 over-expressing Igrov1/T8 tumors. Description: ABCG2 resistant Igrov1/T8 tumor xenograft, combination with topotecan. Type of data set: in vivo, CB-17 SCID mice. The procedure: Specific-pathogen-free adult CB-17 female SCID mice (5-6 weeks of age) weighing 20-25 g, are purchased. Briefly, ABCG2 over-expressing Igrov1/T8 cells are injected (5×10^6 cells/mouse). Prior to injection, Igrov1/T8 cells are maintained in topotecan in order to assure continuous expression of ABCG2. Tumors are allowed to grow for 3-4 weeks or until tumor volumes are greater than ˜100 cubic millimeters, at which time they are stratified into treatment groups. Treatment is administered and we observe the size of the tumor and weight of the mouse over a 7 day period. At the end of 7 days, we: 1) sacrifice the animal; 2) measure and weigh the tumor (if present); 3) analyze the histology of the tumor as well as other organs for evidence of toxicity; and 4) measure the expression of ABCG2 receptors on the tumor to determine if in vivo growth has altered ABCG2 expression. In our initial studies, we have generally observed high survival at 4 weeks (>90%) which escalates rapidly with near 100% mortality by 6 weeks. This approach is well described elsewhere.^9
Tumor-bearing mice were injected with either 150 nM TPT, 100 nM SID 88095709 (probe resupply), or 500 nM SID 85752814 (original SMR hit).
Igrov1/T8 cells were injected into the hind limbs of CB-17 SCID mice at a concentration of 1×10^7 cells in 200 μL, n of 3 per condition. The tumor was grown until the volume was in the range of 75 mm^3 to 250 mm^3. […] Injections were repeated daily and the size of the tumor was determined as a fraction of the starting size. After four days the mice were sacrificed and any recurring tumor was verified by light microscopy examination of histological sections. Mice were studied and maintained in accordance with guidelines of our Institutional Animal Research Committee at UNM HSC.

Data set [9] has as its system parental Igrov1 cells. In words: Topotecan killing of parental cells. Type of data set: cell-based. To be noted: Homo sapiens, IGROV-1.
Data set [10] deals with resistant Igrov1/T8 cells. Description: Topotecan killing of resistant cells. To be noted: Homo sapiens, IGROV-1. The format is cell-based.

Broadly, the IC50 is the midpoint of a concentration-inhibition curve. Take `CC(=O)N1CCN(c2cc(-c3ccco3)nc3cc(-c4ccccc4)nn23)CC1` [Compound 74]: the EC50 in [1] was 190 nM; in data set [5] it was 930 nM. In addition, the values for the concentration for half-maximal inhibition (IC50) in [2] and in data set [6] were 520 nM and 3640 nM, respectively. Further, the selectivity ratio at 30 min in data set [3] is 7. For the same compound, the “TD50 ABCG2” value in data set [4] was over 100 µM. Also, in data set [7], the “TD50 ABCB1” value was 10.10 µM.

Take `CC(=O)N1CCN(c2cc(-c3ccco3)nc3cc(-c4cccc(Cl)c4)nn23)CC1` [Compound 87]: the EC50 amounted to 80 nM in [1] and 580 nM in data set [5]. Further, the IC50 is 560 nM in [2] and 800 nM in data set [6]. In addition, in data set [3], the selectivity ratio at 30 min worked out at 1.4. Further, the “TD50 ABCG2” value in data set [4] is over 100 µM. In addition, the “TD50 ABCB1” value in data set [7] came to 17.60 µM.

As to `COc1cccc(-c2cc3nc(-c4ccco4)cc(N4CCN(C(C)=O)CC4)n3n2)c1` [Compound 88], the figures for the EC50 in data set [1] and in [5] were 320 nM and 1180 nM, respectively. Besides, the IC50 amounted to 1900 nM in data set [2] and 1640 nM in [6]. In addition, the selectivity ratio at 30 min in data set [3] was 0.9. The “TD50 ABCG2” value in data set [4] is over 100 µM. Besides, in [7], the “TD50 ABCB1” value was 49.30 µM.

Regarding `COc1cccc(-c2cc3nc(C)c(C)c(N4CCN(Cc5ccoc5)CC4)n3n2)c1` [SID 97301789], in data set [8] (100 nM topotecan + 100 nM compound intra-tumorally every 24 hours, 5 days (120 hours), n=5), the “Tumor size reduced by” value is listed as 55%. In addition, the “tumor size, inhibitor alone” value in [8] (inhibitor alone (100 nM or 500 nM as printed), Example 3) is “No reduction in size”. Further, the selectivity ratio at 30 min in data set [3] is 233. In [4], the “TD50 ABCG2” value was over 100 µM. In addition, the “efflux inhibition activity ABCB1” value in data set [6] (JC-1 efflux, Jurkat-DNR) is listed as “abolished activity”. In [7], the “TD50 ABCB1” value is over 100 µM.

With `CC[C@@]1(O)C(=O)OCc2c1cc1n(c2=O)Cc2cc3c(CN(C)C)c(O)ccc3nc2-1` [Topotecan, reference compound], the “tumor size, topotecan alone” value in [8] (100 nM topotecan alone, Example 3) is given as “No reduction in size”. Further, the “tumor size, single agent” value in data set [8] (150 nM TPT, 100 nM SID 88095709 or 500 nM SID 85752814 alone, listed as TPT) is “remained the same or increased; also recorded: did not affect the growth of tumors”. Further, the EC50 in data set [9] was found to be 7 nM; in [10], 311 nM.
